Experimental findings from patent US20240174714A1, “TREATMENT OF SKIN DISORDERS” (priority 2021, published 2024) are described below.

pIC50: −log10 of the molar value. Read-outs that look alike come from different tables or passages of the source. Square brackets hold non-standard residues; d marks the D form. Peptide text beside a SMILES is read from it. * marks the point of attachment. Adamantane1carbonyl = O=C(C12CC3CC(CC(C3)C1)C2)*; NH((S)CH(Me)CH2NMe2) = C[C@@H](CN(C)C)N*; Gly(octyl) = CCCCCCCC[C@H](N)C(=O)O; Oxazole4CO(2-Me) = Cc1nc(C(=O)*)co1; Thiophene2carbonyl = O=C(c1cccs1)*; X4 = COc1ccc2cc(C(=O)*)c(=O)oc2c1; Aib = CC(C)(N)C(=O)O; βAla = NCCC(=O)O

Data set [1] is described as follows: Cytotoxicity assay (Alamar Blue) on L6-cells. It is filed as cell-based, rat. On the procedure:
Tests were done in triplicate.
The plates were incubated for additional 2 h.

Data set [2] has as its system intracellular Leishmania donovani MHOM-ET-67/L82 amastigotes. The experiment in a line: In vitro antiprotozoal assay, intracellular amastigotes. The class given is cell-based. Conditions: intracellular amastigotes; read-out: L.don.InMac IC50.
Experimental: (§1) The testing of the inventive compounds against Leishmania donovani (strain MHOM/ET/67/L82) was performed in 96 well plates at concentrations in serial dilutions. Tests were done in triplicate.
Data set [3] has as its system axenic Leishmania donovani MHOM-ET-67/L82 amastigotes. The experiment in a line: In vitro antiprotozoal assay, axenic amastigotes. It is filed as cell-based. Conditions: axenic amastigotes; read-out: L.don.ax. IC50.
Experimental: as §1

In general, IC50 refers to the concentration that gives 50% inhibition. Broadly, the pIC50 is −log10 of the IC50, conventionally taken in molar units. For the molecule `CCCCCCCC[C@H](NC(=O)[C@@H]1CCCN1C(=O)c1cc2ccc(OC)cc2oc1=O)C(=O)N[C@@H](CC(C)C)C(=O)NC(C)(C)C(=O)N[C@@H](CC(C)C)C(=O)N[C@@H](CC(C)C)C(=O)NC(C)(C)C(=O)NC(C)(C)C(=O)NCCC(=O)N[C@@H](C)CN(C)C` [Compound 5769, (2S)-N-[(1S)-1-[(1-{[(1S)-1-{[(1S)-1-{[1-({1-[(2-{[(2S)-1-(dimethylamino)propan-2-yl]carbamoyl}ethyl)carbamoyl]-1-methylethyl}carbamoyl)-1-methylethyl]carbamoyl}-3-methylbutyl]carbamoyl}-3-methylbutyl]carbamoyl}-1-methylethyl)carbamoyl]-3-methylbutyl]-2-{[(2S)-1-(7-methoxy-2-oxo-2H-chromene-3-carbonyl)pyrrolidin-2-yl]formamido}decanamide] (X4-P[Gly(octyl)]L[Aib]LL[Aib][Aib][βAla]-{NH((S)CH(Me)CH2NMe2)}), in data set [1] (rat), 0.423 µM corresponded to half-maximal inhibition (IC50 at 68 h). Further, the pIC50 in data set [2] is 6.67; in data set [3], 8.09.

For the molecule `CCCCCCCC[C@H](NC(=O)[C@@H]1CCCN1C(=O)C12CC3CC(CC(C3)C1)C2)C(=O)N[C@@H](CC(C)C)C(=O)NC(C)(C)C(=O)N[C@@H](CC(C)C)C(=O)N[C@@H](CC(C)C)C(=O)NC(C)(C)C(=O)NC(C)(C)C(=O)NCCC(=O)N[C@@H](C)CN(C)C` [Compound 5770, (2S)-2-{[(2S)-1-(adamantane-1-carbonyl)pyrrolidin-2-yl]formamido}-N-[(1S)-1-[(1-{[(1S)-1-{[(1S)-1-{[1-({1-[(2-{[(2S)-1-(dimethylamino)propan-2-yl]carbamoyl}ethyl)carbamoyl]-1-methylethyl}carbamoyl)-1-methylethyl]carbamoyl}-3-methylbutyl]carbamoyl}-3-methylbutyl]carbamoyl}-1-methylethyl)carbamoyl]-3-methylbutyl]decanamide] (Adamantane1carbonyl-P[Gly(octyl)]L[Aib]LL[Aib][Aib][βAla]-{NH((S)CH(Me)CH2NMe2)}), the midpoint of inhibition in data set [1] (rat), the IC50 at 68 h, lay at 0.185 µM. The pIC50 was 6.47 in data set [2] and 9.00 in data set [3].

With `CCCCCCCC[C@H](NC(=O)[C@@H]1CCCN1C(=O)c1cccs1)C(=O)N[C@@H](CC(C)C)C(=O)NC(C)(C)C(=O)N[C@@H](CC(C)C)C(=O)N[C@@H](CC(C)C)C(=O)NC(C)(C)C(=O)NC(C)(C)C(=O)NCCC(=O)N[C@@H](C)CN(C)C` [Compound 5904, (2S)-N-[(1S)-1-[(1-{[(1S)-1-{[(1S)-1-{[1-({1-[(2-{[(2S)-1-(dimethylamino)propan-2-yl]carbamoyl}ethyl)carbamoyl]-1-methylethyl}carbamoyl)-1-methylethyl]carbamoyl}-3-methylbutyl]carbamoyl}-3-methylbutyl]carbamoyl}-1-methylethyl)carbamoyl]-3-methylbutyl]-2-{[(2S)-1-(thiophene-2-carbonyl)pyrrolidin-2-yl]formamido}decanamide] (Thiophene2carbonyl-P[Gly(octyl)]L[Aib]LL[Aib][Aib][βAla]-{NH((S)CH(Me)CH2NMe2)}), the half-maximal inhibitory concentration (IC50) at 68 h in data set [1] (rat myoblast L6 cells, read-out: Cytotox L6 IC50) was 0.216 µM. Besides, the negative-log IC50 (pIC50) in data set [2] is 7.94; in data set [3], 8.51.

Molecule `CCCCCCCC[C@H](NC(=O)[C@@H]1CCCN1C(=O)c1coc(C)n1)C(=O)N[C@@H](CC(C)C)C(=O)NC(C)(C)C(=O)N[C@@H](CC(C)C)C(=O)N[C@@H](CC(C)C)C(=O)NC(C)(C)C(=O)NC(C)(C)C(=O)NCCC(=O)N[C@@H](C)CN(C)C` [Compound 5905, (2S)-N-[(1S)-1-[(1-{[(1S)-1-{[(1S)-1-{[1-({1-[(2-{[(2S)-1-(dimethylamino)propan-2-yl]carbamoyl}ethyl)carbamoyl]-1-methylethyl}carbamoyl)-1-methylethyl]carbamoyl}-3-methylbutyl]carbamoyl}-3-methylbutyl]carbamoyl}-1-methylethyl)carbamoyl]-3-methylbutyl]-2-{[(2S)-1-(2-methyl-1,3-oxazole-4-carbonyl)pyrrolidin-2-yl]formamido}decanamide] ({Oxazole4CO(2-Me)}-P[Gly(octyl)]L[Aib]LL[Aib][Aib][βAla]-{NH((S)CH(Me)CH2NMe2)}) showed a half-maximal inhibitory concentration (IC50) at 68 h in data set [1] (rat) of 0.852 µM. Further, the figures for the pIC50 in data set [2] and in data set [3] were 7.88 and 8.10, respectively.
